{
  "source": "patent US20250099483A1",
  "about": "“THERAPEUTIC COMPOUNDS” (priority 2021, published 2025)",
  "assay_type_in_all_cases": "in vivo, human (healthy male volunteers)",
  "key": {"[1]": {"experiment": "Phase 1 trial: safety and tolerability of single and repeated oral doses", "experimental": "(§1) A Phase 1, randomized, double-blind, placebo-controlled clinical trial was performed to assess the safety and pharmacokinetics (PK) of Compound 1 after single, escalating, and repeated oral doses in healthy male volunteers.\n(§2) The primary objective was to assess the safety of escalating single oral doses of Compound 1 compared with placebo in healthy male volunteers. The secondary objective was to measure plasma pharmacokinetic (PK) parameters of Compound 1.\nas §2, with “repeated” for “single”, “1 over 14 days” for “1”, “1 and to assess the concentration of Compound 1 in quadriceps muscle.” for “1.”"}, "[2]": {"experiment": "Phase 1 trial Part I: plasma pharmacokinetics after single ascending oral doses", "experimental": "as §1, §2\n(§3) 4-[(7-methoxy-2,3-dihydro-1,4-benzothiazepin-4(5H)yl)methyl]benzoic acid hemi-fumarate (Compound 1) was administered in a gastro-resistant tablet according to EXAMPLE 5. The formulation contained 20 mg, 40 mg, or 200 mg Compound 1 (based on the mass of 4-[(7-methoxy-2,3-dihydro-1,4-benzothiazepin-4(5H)yl)methyl]benzoic acid). Placebo tablet according to Example 2 was used as comparator.\nIn part I, participants from groups A, B, C, D, and E received single doses of 40 mg, 80 mg, 160 mg, 240 mg, or 400 mg Compound 1, respectively, or corresponding placebo. Forty subjects completed part I: 30 active (6 per cohort) and 10 placebo.\nIn Part I, blood samples were collected from each participant as follows: at pre-dose, then 0.25, 0.5, 1, 1.5, 2, 3, 4, 5, 6, 8, 10, 12, 16, 24, 36, 48, 60, 72, and 96 hours after dosing.\n(§4) The area under the plasma concentration-time curve was calculated using a combined linear and logarithmic trapezoidal rule. The interpolation was linear in the constant and ascending parts of the plasma concentration-time profiles. The interpolation was logarithmic in the descending parts.\nFor Part I, to assess the dose effect on the PK of Compound 1, the mean AUClast, and Cmax for each dose were calculated and were plotted by dose.\n(§5) Plasma and muscle samples were analyzed by LC-MS/MS method."}, "[3]": {"experiment": "Phase 1 trial Part II: plasma pharmacokinetics after repeated once-daily oral doses over 14 days", "conditions": "for Steady-state attained at day: once daily", "experimental": "as §1\nas §2, with “repeated” for “single”, “1 over 14 days” for “1”, “1 and to assess the concentration of Compound 1 in quadriceps muscle.” for “1.”\nas §3\nIn Part II, participants from groups I, J, K, and L received repeated doses of 20 mg, 60 mg, 120 mg, or 240 mg Compound 1, respectively, or corresponding placebo once daily over a period of 14 days. Forty-one subjects completed Part II: 7/7/8/7 for cohorts I, J, K, L, and twelve placebo.\nIn Part II, blood samples were collected from each participant as follows: Day 1:12 samples from the pre-morning dose up to 16 h (pre-dose, 0.25, 0.5, 1, 1.5, 2, 3, 4, 6, 8, 12, and 16 h), Days 2-13:12 samples at pre-doses (i.e., morning dose); Day 14:16 samples from the pre-morning dose up to 96 (D14 pre-dose, 0.25, 0.5, 1, 1.5, 2, 3, 4, 6, 8, 12, and 16 h and D15-18:1 sample before theoretical morning dosing.\nas §4\nFor Part II, the same approach was used on AUC, (Day 14) respectively AUC24 (Day 1), and Cmax.\nas §5"}, "[4]": {"experiment": "Phase 1 trial Part II: concentration in quadriceps muscle biopsy on Day 13", "conditions": "for Total Cpd I concentration / Unbound Cpd I concentration: quadriceps muscle, Day 13, at least 3 h post dose, median (range); for Kp: geom. mean (geom. % CV)", "experimental": "The primary objective was to assess the safety of escalating repeated oral doses of Compound 1 over 14 days compared with placebo in healthy male volunteers. The secondary objective was to measure plasma pharmacokinetic (PK) parameters of Compound 1 and to assess the concentration of Compound 1 in quadriceps muscle. For Study part II (for all groups), Concentrations of Compound 1 were determined in muscle by performing muscle biopsy on quadriceps muscle on day 13, at least 3 hours after morning dose. Plasma and muscle samples were analyzed by LC-MS/MS method. Muscle biopsy was performed to assess the concentration of Compound 1 in quadriceps muscle. The biopsy was performed on Day 13 at 3 hours post dose at least. Table 10 summarizes the ratios of unbound respective total concentration at Day 13 at 3 hours post dose divided by the plasma concentration on Day 14 at 3 hours post dose."}},
  "data": [
    {"smiles": "COc1ccc2c(c1)CN(Cc1ccc(C(=O)O)cc1)CCS2.O=C(O)/C=C/C(=O)O", "note": "[Compound 1, 4-[(7-methoxy-2,3-dihydro-1,4-benzothiazepin-4(5H)yl)methyl]benzoic acid hemifumarate]", "values": [
      {"measurement": "tolerability", "setting": "[1]; at the doses and dose regimens tested", "result": "well tolerated"},
      {"measurement": "serious adverse events", "setting": "[1]; single doses and 14-day repeated doses tested", "result": "No serious adverse events were reported"},
      {"measurement": "dose proportionality of AUClast and Cmax", "setting": "[2]; Part I, graphical inspections", "result": "dose proportionality"},
      {"measurement": "inter-individual variability across treatment groups", "setting": "[2]; Part I, single oral doses", "result": "low"},
      {"measurement": "linearity of pharmacokinetics with dose", "setting": "[2]; Part I, single oral doses", "result": "No evidence of non-linearity with the dose"},
      {"measurement": "tlag", "setting": "[2]; after single oral administration at 20 to 400 mg, gastro-resistant tablet", "result": "less than 2 hours"},
      {"measurement": "absorption", "setting": "[2]; single oral administration, after a lag time consistent with the gastro-resistant tablet", "result": "rapid absorption"},
      {"measurement": "Steady-state attained at day", "setting": "[3]; 240 mg cohort", "result": 5},
      {"measurement": "Steady-state attained at day", "setting": "[3]; 20, 60, and 120 mg cohorts", "result": 4},
      {"measurement": "inter-individual variability (Cmax and AUC24)", "setting": "[3]; Part II, 20, 60, 120, and 240 mg/d", "result": "low"},
      {"measurement": "Steady-state attained after days of daily treatment", "setting": "[3]; Part II, across cohorts 20-240 mg once daily", "result": "3 to 7", "unit": "days"},
      {"measurement": "dose proportionality of AUCτ resp. AUC0-24 and Cmax", "setting": "[3]; Part II, graphical inspections", "result": "dose proportionality"},
      {"measurement": "accumulation ratios for Cmax and AUC24", "setting": "[3]; after 14-day repeated administrations of 20, 60, 120, and 240 mg/d", "result": "1.4-1.8"},
      {"measurement": "Tmax", "setting": "[3]; male, human, plasma, after 14-days of repeated once daily oral administrations of 20 mg (so in the source), read-out: median Tmax", "result": "3 to 3.5", "unit": "h"},
      {"measurement": "linearity of pharmacokinetics with time and dose", "setting": "[3]; single and repeat dose studies", "result": "No evidence of non-linearity with the time and dose"},
      {"measurement": "dose proportionality of median unbound and total concentrations in quadriceps muscle", "setting": "[4]; Part II, 20-240 mg once daily", "result": "dose proportional"},
      {"measurement": "Kp at 3 h", "setting": "[4]; male, human, quadriceps muscle / plasma, oral, summary, within the dose range 20-240 mg", "result": "0.04 to 0.08"},
      {"measurement": "Total Cpd I concentration", "setting": "[4]; 20 mg once daily (n=7)", "result": "171 (141-341) ng/g"},
      {"measurement": "Unbound Cpd I concentration", "setting": "[4]; 20 mg once daily (n=7)", "result": "22.0 (17.5-41.5) ng/g"},
      {"measurement": "Total Cpd I concentration", "setting": "[4]; 60 mg once daily (n=7)", "result": "489 (273-693) ng/g"},
      {"measurement": "Unbound Cpd I concentration", "setting": "[4]; 60 mg once daily (n=7)", "result": "80.3 (49.7-124) ng/g"},
      {"measurement": "Total Cpd I concentration", "setting": "[4]; 120 mg once daily (n=8)", "result": "913 (614-1207) ng/g"},
      {"measurement": "Unbound Cpd I concentration", "setting": "[4]; 120 mg once daily (n=8)", "result": "104 (63.2-196) ng/g"},
      {"measurement": "Total Cpd I concentration", "setting": "[4]; 240 mg once daily (n=7)", "result": "1480 (890-1745) ng/g"},
      {"measurement": "Unbound Cpd I concentration", "setting": "[4]; 240 mg once daily (n=7)", "result": "242 (196-452) ng/g"},
      {"measurement": "Kpu", "setting": "[4]; summary, within the dose range 20-240 mg", "result": "0.008-0.01"},
      {"measurement": "Kp", "setting": "[4]; total muscle concentration Day 13, 3 h post dose / plasma concentration Day 14, 3 h post dose, 20 mg once daily", "result": "0.0808 (65.3) (ng/g)/(ng/mL)"},
      {"measurement": "Kp", "setting": "[4]; total muscle concentration Day 13 / plasma concentration Day 14, 3 h post dose, 60 mg once daily", "result": "0.0640 (22.6) (ng/g)/(ng/mL)"},
      {"measurement": "Kp", "setting": "[4]; total muscle concentration Day 13 / plasma concentration Day 14, 3 h post dose, 120 mg once daily", "result": "0.0636 (49.9) (ng/g)/(ng/mL)"},
      {"measurement": "Kp", "setting": "[4]; total muscle concentration Day 13 / plasma concentration Day 14, 3 h post dose, 240 mg once daily", "result": "0.0440 (30.0) (ng/g)/(ng/mL)"}
    ]}
  ]
}
